Tests used:
AuroraB = biological target: T1, AuroraB (Homo sapiens, UniProt Q96GD4); assay: AuroraB Homogeneous Time Resolved Fluorescent (HTRF) kinase assay; assay type: biochemical; settings: average; read-out: AurB_IC50_IP (uM Avg)
T1 construct: 20 μL of AuroraB FL H is for a final volume of 41 μL; His
Outline: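 Full-length His-tagged kinase phosphorylates biotinylated Histone H3 (0.1 μM final) with ATP in pH 7.5 HEPES containing MgCl, MnCl, DTT and BSA for about 90 min. EDTA-containing detection mix with SA-APC and Eu-anti-phosphoHistone H3 then equilibrated about 60 min; HTRF read with 320 nm excitation, emissions 615/655 nm.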

AuroraA-TPX2 = biological target: T2, AuroraA-TPX2 (Homo sapiens, UniProt O14965); assay: AuroraA-TPX2 Homogeneous Time Resolved Fluorescent (HTRF) kinase assay; assay type: biochemical; settings: average; read-out: AurA_IC50_IP (uM Avg)
T2 construct: 20 μL of AuroraA-TPX2 KD GST for a final volume of about 41 μL; GST
T2 sequence (O14965 133-383 limits assumed): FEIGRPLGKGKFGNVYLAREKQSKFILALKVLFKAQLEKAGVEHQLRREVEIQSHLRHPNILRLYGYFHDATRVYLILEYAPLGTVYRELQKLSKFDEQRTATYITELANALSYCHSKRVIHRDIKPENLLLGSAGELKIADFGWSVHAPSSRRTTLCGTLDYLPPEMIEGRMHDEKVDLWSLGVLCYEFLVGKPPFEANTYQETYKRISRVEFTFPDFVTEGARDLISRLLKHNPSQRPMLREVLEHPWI
T2 sequence (Q9ULW0 1-43 partner limits assumed): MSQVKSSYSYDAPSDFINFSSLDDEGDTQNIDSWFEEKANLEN
Outline: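 HTRF read-out (Eu 615 nm to APC 655 nm) of phosphorylated biotin-PLK, detected with 0.02 nM europium anti-phosphoPLK antibody and 0.0005 mg/mL SA-APC after overnight equilibration.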

T1 sequence (Q96GD4 whole entry): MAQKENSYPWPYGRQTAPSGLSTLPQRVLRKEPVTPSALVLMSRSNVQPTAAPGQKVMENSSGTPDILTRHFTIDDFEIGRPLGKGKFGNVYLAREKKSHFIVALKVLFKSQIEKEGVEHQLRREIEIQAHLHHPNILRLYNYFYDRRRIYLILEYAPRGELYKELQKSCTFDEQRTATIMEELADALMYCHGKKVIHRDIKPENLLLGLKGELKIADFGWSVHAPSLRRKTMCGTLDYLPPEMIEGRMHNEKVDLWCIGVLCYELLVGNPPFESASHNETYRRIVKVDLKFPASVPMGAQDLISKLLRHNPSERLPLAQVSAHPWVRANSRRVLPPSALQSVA

SMILES | IC50 (AuroraB) | IC50 (AuroraA-TPX2)
COc1cnc2c(Sc3ccc(Nc4nnc(-c5ccc(C)c(N)c5)c5ccccc45)cc3)ccnc2c1 [compound 477] | 0.026 µM | 0.009 µM
COC1CCN(c2nnc(Nc3ccc(Oc4ccnc5ccoc45)cc3)c3ccccc23)CC1 [compound 478] | 0.074 µM | 2.03 µM
Cc1ccc(-c2nnc(Nc3ccc(Sc4ccnc5ccoc45)cc3)c3ccccc23)cc1N [compound 479] | > 125 µM | > 125 µM
Cc1ccc(-c2nnc(Nc3ccc(Oc4ccnc5ccoc45)cc3)c3ccccc23)cc1N [compound 480] | 0.013 µM | 0.162 µM
Cc1ccc(-c2nnc(Nc3ccc(Sc4ccnc5ccoc45)cc3)c3ccccc23)cn1 [compound 481] | 0.002 µM | 0.341 µM
Cc1ccc(-c2nnc(Nc3ccc(Sc4ccnc5ccoc45)cc3)c3ccccc23)nc1 [compound 482] | 0.004 µM | 0.415 µM
Clc1ccc(-c2nnc(Nc3ccc(Oc4ccnc5ccoc45)cc3)c3ccccc23)cc1 [compound 483] | 0.013 µM | 0.583 µM
C[Si](C)(C)c1cc2nccc(Sc3ccc(Nc4nnc(Cl)c5ccccc45)cc3)c2o1 [compound 484] | 0.107 µM | > 125 µM
COc1ccc(-c2nnc(Nc3ccc(Sc4ccnc5ccoc45)cc3)c3ccccc23)cn1 [compound 485] | 0.005 µM | 0.479 µM
Clc1ccc(-c2nnc(Nc3ccc(Sc4ccnc5cc(C6CC6)oc45)cc3)c3ccccc23)cc1 [compound 486] | 0.018 µM | 0.141 µM
Cc1cccc(-c2nnc(Nc3ccc(Sc4ccnc5ccoc45)cc3)c3ccccc23)n1 [compound 488] | 0.015 µM | 1.29 µM
N#Cc1cc2nccc(Sc3ccc(Nc4nnc(-c5ccc(Cl)cc5)c5ccccc45)cc3)c2o1 [compound 489] | 0.019 µM | 0.09 µM
Cc1ccc(-c2nnc(Nc3ccc(Sc4ccnc5cc(C#N)oc45)cc3)c3ccccc23)cc1N [compound 490] | 0.013 µM | 0.09 µM
Cc1cc2nccc(Sc3ccc(Nc4nnc(-c5ccc(Cl)cc5)c5ccccc45)cc3)c2o1 [compound 491] | 0.039 µM | 0.15 µM
Cc1cc2nccc(Sc3ccc(Nc4nnc(-c5ccc(C)c(N)c5)c5ccccc45)cc3)c2o1 [compound 492] | 0.046 µM | 0.142 µM
Clc1ccc(-c2nnc(Nc3ccc(Sc4ccnc5cccnc45)cc3)c3ccccc23)nc1 [compound 493] | 0.002 µM | 0.02 µM
COc1cc2nccc(Sc3ccc(Nc4nnc(-c5cc(C)cs5)c5ccccc45)cc3)c2cn1 [compound 494] | 0.017 µM | 0.026 µM
COc1cnc2c(Sc3ccc(Nc4nnc(-c5ccccc5F)c5ccccc45)cc3)ccnc2c1 [compound 495] | 0.026 µM | 0.15 µM
FC(F)(F)Oc1ccc2c(Oc3ccc(Nc4nnc(-c5ccccc5)c5ccccc45)cc3)ccnc2c1 [compound 496] | 0.374 µM | 1.04 µM
FC(F)(F)Oc1ccc2c(Sc3ccc(Nc4nnc(-c5ccccc5)c5ccccc45)cc3)ccnc2c1 [compound 497] | 0.333 µM | > 25 µM

SMILES | IC50 (AuroraB) | IC50 (AuroraA-TPX2)
FC(F)(F)Oc1ccc2c(Oc3ccc(Nc4nnc(-c5ccc(Cl)cc5)c5ccccc45)cc3)ccnc2c1 [compound 498] | 0.165 µM | 0.183 µM
Cc1csc(-c2nnc(Nc3ccc(Sc4ccnc5cc(OC(F)(F)F)ccc45)cc3)c3ccccc23)c1 [compound 499] | 0.363 µM | 0.277 µM
CN(c1ccc(Oc2ccnc3ccc(=O)[nH]c23)cc1)c1nnc(-c2ccc(Cl)cc2)c2ccccc12 [compound 500] | 4.17 µM | > 25 µM
COc1cnc2c(Sc3ccc(Nc4nnc(-c5ccc6occc6c5)c5ccccc45)cc3)ccnc2c1 [compound 501] | 0.058 µM | 0.029 µM
COc1cnc2c(Sc3ccc(Nc4nnc(-c5ccc6cn(C)nc6c5)c5ccccc45)cc3)ccnc2c1 [compound 502] | 0.009 µM | 0.027 µM
COc1cnc2c(Sc3ccc(Nc4nnc(N5CCN(C)CC5)c5ccccc45)cc3)ccnc2c1 [compound 503] | 0.007 µM | 0.02 µM
COc1cnc2c(Sc3ccc(Nc4nnc(-c5ccc6nonc6c5)c5ccccc45)cc3)ccnc2c1 [compound 504] | 0.032 µM | 0.017 µM
CCOc1nc(-c2nnc(Nc3ccc(Sc4ccnc5cc(OC)cnc45)cc3)c3ccccc23)cs1 [compound 505] | 0.014 µM | 0.016 µM
COc1cnc2c(Sc3ccc(Nc4nnc(-c5cscn5)c5ccccc45)cc3)ccnc2c1 [compound 506] | 0.089 µM | 0.748 µM
COc1cnc2c(Sc3ccc(Nc4nnc(N5CCN(CC(F)F)CC5)c5ccccc45)cc3)ccnc2c1 [compound 507] | 0.042 µM | 0.152 µM
COc1cnc2c(Sc3ccc(Nc4nnc(NCCCSC)c5ccccc45)cc3)ccnc2c1 [compound 508] | 0.009 µM | 0.082 µM
COc1ccc(-c2nnc(Nc3ccc(Sc4ccnc5cccnc45)cc3)c3ccccc23)cn1 [compound 509] | 0.013 µM | 0.317 µM
Cc1csc(-c2nnc(Nc3ccc(Oc4ccnc5cccnc45)cc3)c3cc(F)c(F)cc23)c1 [compound 510] | 0.05 µM | 0.32 µM
COc1cnc2c(Sc3ccc(Nc4nnc(OC(C)C)c5ccccc45)cc3)ccnc2c1 [compound 511] | 0.069 µM | 0.585 µM
CCOc1nnc(Nc2ccc(Sc3ccnc4cc(OC)cnc34)cc2)c2ccccc12 [compound 512] | 0.12 µM | 0.501 µM
COc1cnc2c(Sc3ccc(Nc4nnc(OCC(F)(F)F)c5ccccc45)cc3)ccnc2c1 [compound 513] | 0.03 µM | 0.231 µM
COc1cnc2c(Sc3ccc(Nc4nnc(SC)c5ccccc45)cc3)ccnc2c1 [compound 514] | 0.01 µM | 0.189 µM
COCCOc1nnc(Nc2ccc(Sc3ccnc4cc(OC)cnc34)cc2)c2ccccc12 [compound 515] | 0.012 µM | 0.072 µM
COc1cnc2c(Sc3ccc(Nc4nnc(-c5cccc(Cl)c5)c5ccccc45)cc3)ccnc2c1 [compound 516] | 0.068 µM | 0.088 µM
c1ccc2c(Sc3ccc(Nc4nnc(-c5ccc6c(c5)OCO6)c5ccccc45)cc3)ccnc2c1 [compound 517] | 0.017 µM | 0.15 µM

SMILES | IC50 (AuroraB) | IC50 (AuroraA-TPX2)
Clc1cccc(-c2nnc(Nc3ccc(Sc4ccnc5ccsc45)cc3)c3ccccc23)c1 [compound 518] | 0.01 µM | 0.218 µM
COc1cnc2c(Sc3ccc(Nc4nnc(-c5ccccc5)c5ccccc45)cc3F)ccnc2c1 [compound 519] | 0.053 µM | 0.083 µM
COc1cnc2c(Sc3ccc(Nc4nnc(N5CCCC5)c5ccccc45)cc3)ccnc2c1 [compound 521] | 0.025 µM | 0.112 µM
COc1cnc2c(Sc3ccc(Nc4nnc(-c5ccc6c(c5)OCO6)c5ccccc45)cc3F)ccnc2c1 [compound 522] | 0.022 µM | 0.009 µM
COc1cnc2c(Sc3ccc(Nc4nnc(N5CCC(C(F)(F)F)CC5)c5ccccc45)cc3)ccnc2c1 [compound 523] | 0.144 µM | 0.036 µM
CCCN(C)c1nnc(Nc2ccc(Sc3ccnc4cc(OC)cnc34)cc2)c2ccccc12 [compound 524] | 0.099 µM | 0.093 µM
COc1cnc2c(Oc3ccc(Nc4nnc(-c5ccc(C)c(OC)c5)c5ccccc45)cc3)ccnc2c1 [compound 525] | 0.028 µM | 0.013 µM
COc1cnc2c(Sc3ccc(Nc4nnc(N5CCC(Cl)CC5)c5ccccc45)cc3)ccnc2c1 [compound 527] | 0.138 µM | 0.036 µM
COc1cnc2c(Sc3ccc(Nc4nnc(-c5cc(C)cs5)c5ccccc45)cc3F)ccnc2c1 [compound 528] | 0.293 µM | 0.064 µM
COc1cnc2c(Sc3ccc(Nc4nnc(-c5ccc(C)c(OC)c5)c5ccccc45)cc3)ccnc2c1 [compound 529] | 0.037 µM | 0.02 µM
COc1cnc2c(Sc3ccc(Nc4nnc(-c5ccc6c(c5)OCO6)c5ccccc45)cc3)ccnc2c1 [compound 530] | 0.014 µM | 0.014 µM
COc1cnc2c(Sc3ccc(Nc4nnc(N5CCC(F)(F)CC5)c5ccccc45)cc3)ccnc2c1 [compound 531] | 0.024 µM | 0.089 µM
COc1cnc2c(Sc3ccc(Nc4nnc(N5CCC[C@@H](OC)C5)c5ccccc45)cc3)ccnc2c1 [compound 532] | 0.019 µM | 0.061 µM
COCCNc1nnc(Nc2ccc(Sc3ccnc4cc(OC)cnc34)cc2)c2ccccc12 [compound 533] | 0.03 µM | 0.045 µM
COC1CCN(c2nnc(Nc3ccc(Sc4ccnc5cc(C#N)ccc45)cc3)c3ccccc23)CC1 [compound 534] | 0.02 µM | 0.035 µM
COCCCNc1nnc(Nc2ccc(Sc3ccnc4cc(OC)cnc34)cc2)c2ccccc12 [compound 535] | 0.02 µM | 0.022 µM
COc1cnc2c(Sc3ccc(Nc4nnc(Cl)c5ccccc45)cc3)ccnc2c1 [compound 536] | 0.031 µM | 0.812 µM
COc1cnc2c(Sc3ccc(Nc4nnc(NCCc5ccccn5)c5ccccc45)cc3)ccnc2c1 [compound 537] | 0.111 µM | 0.198 µM

Reference: patent US8557816B2, “Aurora kinase modulators and method of use” (Amgen Inc., priority 2007, dated 2013)
